Experiments:
[1] = test system: P. aeruginosa (ATCC 19429); assay: Galleria mellonella infection by P. aeruginosa, treatment survival; type: in vivo; details: 1 × 10^3 CFU P. aeruginosa, single dose 5 μg ciprofloxacin
[2] = test system: red blood cells; details: 100 μg/ml peptide; ref de Latour et al., 2010; Dean et al., 2011; cited from earlier work

For `O=C(O)c1cn(C2CC2)c2cc(N3CCNCC3)c(F)cc2c1=O` [ciprofloxacin], the “effectiveness at prolonging survival vs infected control, in words” value [1] was “effective”.

In the case of ATRA, the hemolysis [2] is given as “no significant hemolysis”.

Reference: article PMC3131519 (Frontiers in Microbiology, 2011)
